Source: the NIST ThermoML archive (doi:10.1021/je700260f)

Settings: Liquid, Vibrating tube method

FC(C(F)(F)F)C(F)(F)F [1,1,1,2,3,3,3-heptafluoropropane]
Settings | mass density [kg/m3]
293.15 K, 27338 kPa | 1533.2
293.15 K, 27374 kPa | 1533.1
293.15 K, 27410 kPa | 1533.2
293.15 K, 27435 kPa | 1533.3
293.15 K, 27481 kPa | 1533.5
293.15 K, 27522 kPa | 1533.7
293.15 K, 27553 kPa | 1533.7
293.15 K, 27589 kPa | 1533.9
293.15 K, 27619 kPa | 1533.9
293.15 K, 27655 kPa | 1534
293.15 K, 27692 kPa | 1534.2
293.15 K, 27728 kPa | 1534.3
293.15 K, 27759 kPa | 1534.5
293.15 K, 27800 kPa | 1534.5
293.15 K, 27841 kPa | 1534.6
293.15 K, 27871 kPa | 1534.8
293.15 K, 27912 kPa | 1534.9
293.15 K, 27953 kPa | 1534.9
293.15 K, 27984 kPa | 1535.1
293.15 K, 28026 kPa | 1535.1
293.15 K, 28067 kPa | 1535.5
293.15 K, 28097 kPa | 1535.4
293.15 K, 28144 kPa | 1535.6
293.15 K, 28185 kPa | 1535.7
293.15 K, 28216 kPa | 1535.9
293.15 K, 28258 kPa | 1536
293.15 K, 28300 kPa | 1536
293.15 K, 28327 kPa | 1536.1
293.15 K, 28369 kPa | 1536.4
293.15 K, 28411 kPa | 1536.5
293.15 K, 28442 kPa | 1536.7
293.15 K, 28484 kPa | 1536.7
293.15 K, 28520 kPa | 1536.8
293.15 K, 28556 kPa | 1536.8
293.15 K, 28588 kPa | 1537.1
293.15 K, 28619 kPa | 1537.1
293.15 K, 28667 kPa | 1537.3
293.15 K, 28709 kPa | 1537.3
293.15 K, 28735 kPa | 1537.5
293.15 K, 28783 kPa | 1537.7
293.15 K, 28823 kPa | 1537.8
293.15 K, 28855 kPa | 1537.9
293.15 K, 28908 kPa | 1538.1
293.15 K, 28956 kPa | 1538.2
293.15 K, 28983 kPa | 1538.2
293.15 K, 29030 kPa | 1538.3
293.15 K, 29072 kPa | 1538.5
293.15 K, 29104 kPa | 1538.5
293.15 K, 29147 kPa | 1538.8
293.15 K, 29179 kPa | 1538.8
293.15 K, 29229 kPa | 1539.1
293.15 K, 29256 kPa | 1539.1
293.15 K, 29289 kPa | 1539.1
293.15 K, 29337 kPa | 1539.3
293.15 K, 29385 kPa | 1539.4
293.15 K, 29417 kPa | 1539.6
293.15 K, 29460 kPa | 1539.7
293.15 K, 29497 kPa | 1539.7
293.15 K, 29528 kPa | 1540
293.15 K, 29566 kPa | 1540
293.15 K, 29603 kPa | 1540.2
293.15 K, 29637 kPa | 1540.3
293.15 K, 29675 kPa | 1540.4
293.15 K, 29718 kPa | 1540.6
293.15 K, 29751 kPa | 1540.4
293.15 K, 29782 kPa | 1540.6
293.15 K, 29810 kPa | 1540.8
293.15 K, 29843 kPa | 1540.9
293.15 K, 29870 kPa | 1540.9
293.15 K, 29903 kPa | 1541.1
293.15 K, 29936 kPa | 1541.1
293.15 K, 29969 kPa | 1541.3
293.15 K, 29997 kPa | 1541.2
293.15 K, 30026 kPa | 1541.4
293.15 K, 30054 kPa | 1541.5
293.15 K, 30083 kPa | 1541.6
293.15 K, 30120 kPa | 1541.8
293.15 K, 30153 kPa | 1541.8
293.15 K, 30181 kPa | 1541.9
293.15 K, 30215 kPa | 1542
293.15 K, 30248 kPa | 1542.1
293.15 K, 30287 kPa | 1542.3
293.15 K, 30316 kPa | 1542.4
293.15 K, 30350 kPa | 1542.5
293.15 K, 30389 kPa | 1542.5
293.15 K, 30423 kPa | 1542.7
293.15 K, 30456 kPa | 1542.8
293.15 K, 30493 kPa | 1542.8
293.15 K, 30522 kPa | 1542.9
293.15 K, 30560 kPa | 1543.2
293.15 K, 30598 kPa | 1543.1
293.15 K, 30626 kPa | 1543.2
293.15 K, 30669 kPa | 1543.4
293.15 K, 30713 kPa | 1543.5
293.15 K, 30742 kPa | 1543.5
293.15 K, 30776 kPa | 1543.6
293.15 K, 30815 kPa | 1543.8
293.15 K, 30853 kPa | 1543.9
293.15 K, 30887 kPa | 1543.9
293.15 K, 30920 kPa | 1544.1
293.15 K, 30958 kPa | 1544.3
293.15 K, 30982 kPa | 1544.4
293.15 K, 31020 kPa | 1544.4
293.15 K, 31063 kPa | 1544.6
293.15 K, 31092 kPa | 1544.7
293.15 K, 31136 kPa | 1544.7
293.15 K, 31164 kPa | 1544.7
293.15 K, 31189 kPa | 1544.9
293.15 K, 31232 kPa | 1545.1
293.15 K, 31270 kPa | 1545.2
293.15 K, 31299 kPa | 1545.2
293.15 K, 31327 kPa | 1545.4
293.15 K, 31356 kPa | 1545.3
293.15 K, 31400 kPa | 1545.5
293.15 K, 31438 kPa | 1545.7
293.15 K, 31468 kPa | 1545.7
293.15 K, 31506 kPa | 1545.8
293.15 K, 31537 kPa | 1546
293.15 K, 31563 kPa | 1546.1
293.15 K, 31593 kPa | 1546.1
293.15 K, 31636 kPa | 1546.3
293.15 K, 31669 kPa | 1546.4
293.15 K, 31698 kPa | 1546.4
293.15 K, 31742 kPa | 1546.6
293.15 K, 31786 kPa | 1546.7
293.15 K, 31815 kPa | 1546.8
293.15 K, 31854 kPa | 1546.8
293.15 K, 31882 kPa | 1547
293.15 K, 31919 kPa | 1547.1
293.15 K, 31954 kPa | 1547.1
293.15 K, 31986 kPa | 1547.3
293.15 K, 32022 kPa | 1547.3
293.15 K, 32055 kPa | 1547.6
293.15 K, 32096 kPa | 1547.7
293.15 K, 32136 kPa | 1547.8
293.15 K, 32163 kPa | 1547.7
293.15 K, 32205 kPa | 1548
293.15 K, 32245 kPa | 1548.1
293.15 K, 32272 kPa | 1548.1
293.15 K, 32309 kPa | 1548.2
293.15 K, 32338 kPa | 1548.3
293.15 K, 32381 kPa | 1548.3
293.15 K, 32418 kPa | 1548.5
293.15 K, 32447 kPa | 1548.7
293.15 K, 32494 kPa | 1548.7
293.15 K, 32531 kPa | 1548.9
293.15 K, 32565 kPa | 1548.9
293.15 K, 32598 kPa | 1549
293.15 K, 32635 kPa | 1549.1
293.15 K, 32668 kPa | 1549.3
293.15 K, 32711 kPa | 1549.4
293.15 K, 33629 kPa | 1552.1
293.15 K, 33659 kPa | 1552.1
293.15 K, 33704 kPa | 1552.3
293.15 K, 33734 kPa | 1552.3
293.15 K, 33769 kPa | 1552.5
293.15 K, 33809 kPa | 1552.5
293.15 K, 33844 kPa | 1552.5
293.15 K, 33879 kPa | 1552.6
293.15 K, 33925 kPa | 1552.9
293.15 K, 33976 kPa | 1553.1
293.15 K, 34008 kPa | 1553
293.15 K, 34053 kPa | 1553.2
293.15 K, 34100 kPa | 1553.3
293.15 K, 34131 kPa | 1553.5
293.15 K, 34173 kPa | 1553.5
293.15 K, 34220 kPa | 1553.9
293.15 K, 34257 kPa | 1553.9
293.15 K, 34293 kPa | 1553.8
293.15 K, 34336 kPa | 1554
293.15 K, 34374 kPa | 1554.1
293.15 K, 34415 kPa | 1554.3
293.15 K, 34442 kPa | 1554.3
293.15 K, 34464 kPa | 1554.4
293.15 K, 34489 kPa | 1554.4
293.15 K, 34511 kPa | 1554.7
293.15 K, 34523 kPa | 1554.6
293.15 K, 34537 kPa | 1554.6
293.15 K, 34546 kPa | 1554.6
303.14 K, 1230 kPa | 1372.6
303.14 K, 7245 kPa | 1416.2
303.14 K, 7273 kPa | 1416.3
303.14 K, 7298 kPa | 1416.5
303.14 K, 7327 kPa | 1416.7
303.14 K, 7356 kPa | 1416.8
303.14 K, 7384 kPa | 1417.1
303.14 K, 7413 kPa | 1417.1
303.14 K, 10852 kPa | 1437.1
303.14 K, 10890 kPa | 1437.1
303.14 K, 10918 kPa | 1437.3
303.14 K, 10989 kPa | 1437.6
303.14 K, 12092 kPa | 1443.4
303.14 K, 12132 kPa | 1443.6
303.14 K, 12163 kPa | 1443.8
303.14 K, 12207 kPa | 1443.9
303.14 K, 12242 kPa | 1444.1
303.14 K, 12284 kPa | 1444.2
303.14 K, 12330 kPa | 1444.6
303.14 K, 12373 kPa | 1444.7
303.14 K, 14583 kPa | 1455.6
303.14 K, 14620 kPa | 1455.8
303.14 K, 14653 kPa | 1455.9
303.14 K, 14687 kPa | 1456
303.14 K, 14726 kPa | 1456.4
303.14 K, 14755 kPa | 1456.5
